Results: patent US20040242641A1, “(1S,5S)-3-(5,6-dichloro-3-pyridinyl)-3,6-diazabicyclo[3.2.0]heptane is an effective analgesic agent” (priority 2003, published 2004)
Read-outs that look alike come from different tables or passages of the source.

Key:
[1] = system: mechanical allodynia in the affected paw of animals that had undergone spinal nerve ligation; experiment: Spinal nerve (L5/L6) ligation neuropathic pain model, mechanical allodynia with von Frey filaments; type: in vivo, rat; conditions: for ED50: Rattus norvegicus, read-out: Analgesic Effect ED50
From the text: Male Sprague Dawley rats (80-100 g) were purchased from Charles River (Portage, Mich.). Prior to surgery, animals were group-housed and maintained in a temperature regulated environment (lights on between 7:00 a.m. and 8:00 p.m.). Following nerve ligation surgery, animals were group housed. Rats had access to food and water ad libitum.
The L5 and L6 spinal nerves of anesthesized rats were tightly ligated in the manner described previously by S. H. Kim and J. M. Chung, PAIN 50:355 (1992). Briefly, an incision was made on the dorsal portion of the hip and the muscle was blunt dissected to reveal the spinal processes. The L6 transverse process was removed, and the left L5 and L6 spinal nerves were tightly ligated with 5.0 braided silk suture. The wound was cleaned, the membrane sewn with 4.0 dissolvable Vicryl suture and the skin closed with wound clips.
For the assessment of neuropathic pain, mechanical allodynia in the affected paw of animals that had undergone spinal nerve ligation was evaluated using von Frey filaments. As described previously by S. R. Chaplan, F. W. Bach, J. W. Pogrel, J. M. Chung, and T. L. Yaksh, “Quantitative assessment of tactile allodynia in the rat paw” J. Neurosci. Meth., 53:55-63 (1994) two weeks following surgery, rats were acclimated to the testing box that was constructed of plexiglass with a wire mesh floor to allow access to the planter surface of the hindpaws. Using the Dixons Up-Down method, a baseline level of allodynia was determined to have a withdrawal threshold of <4 g of pressure. […] The EC50 was determined to be 1 μmol/kg.

[2] = molecular target: T1, ganglionic-like nicotinic acetylcholine receptor (nAChR) subtype in IMR-32 human neuroblastoma cells (Homo sapiens, UniProt P30926+P32297); experiment: IMR-32 FLIPR assay, intracellular Ca2+ changes (side effect liability); type: cell-based
T1 construct: host or cells: IMR-32 human neuroblastoma cells
Procedure: Cells were plated out at a density of 1×10^6 cells per well on black-walled, clear-bottomed, 96-well plates (Costar, Cambridge, Mass.) and used approximately 72 hours after plating. All plates were coated with polyethylenimine to aid in the adherence of the cells to the plate.
Changes in the intracellular Ca^2+ content of IMR-32 cells were measured using the calcium chelating dye Fluo-4 (Molecular Probes, Eugene, Oreg.) in conjunction with a Fluorescent Imaging Plate Reader (Molecular Devices, Sunnyvale, Calif.). The cell permeant acetoxymethyl (AM) ester form of […] was prepared to a concentration of 1 mM in anhydrous DMSO and 10% pluronic acid. The dye was then diluted to a final concentration of […] in growth media and placed on the cells for 1 hour at 37° C. Black-walled 96-well plates were utilized to reduce light scattering. The unincorporated dye was removed from the cells by excessive washing with the assay buffer (HETES buffer, 20 mM Hepes, 120 mM NaCl, 5 mM KCl, 1 mM MgCl2, 5 mM glucose, […], and 5 mM CaCl2). […] The intensity of the fluorescence was captured by the CCD camera every second for the first minute following the agonist addition with additional readings every 5 seconds for a total time period of 5 minutes. These images were digitally transferred to an interfaced PC and change in fluorescence intensity processed for each well. The exposure setting of the camera was 0.4 sec with an f-stop setting of […].
The IMR-32 FLIPR assay, described herein, measures cation […] that is mediated through the ganglionic-like nicotinic acetylcholine receptor (nAChR) subtype. Agents that facilitate cation […] of the ganglionic nAChR subtype have been linked to side effect liabilty such as cardiovascular pressor effects.

[3] = molecular target: T2, neuronal nicotinic acetylcholine receptors (Rattus norvegicus, UniProt P09483+P12390); experiment: [3H]-cytisine binding to neuronal nicotinic acetylcholine receptors, crude synaptic membranes from whole rat brain; conditions: [3H]-CYT 1.25 nM, Cheng and Prusoff correction
T2 construct: crude synaptic membrane preparations from whole rat brain; from tissue; host or cells: whole rat brain, crude synaptic membranes
Procedure: (1S,5S)-3-(5,6-Dichloro-3-pyridinyl)-3,6-diazabicyclo [3.2.0]heptane was subjected to an vitro assay against the nicotinic acetylcholine receptor as described below.
Binding of [^3H]-cytisine ([^3H]-CYT) to neuronal nicotinic acetylcholine receptors was accomplished using crude synaptic membrane preparations from whole rat brain (Pabreza et al., Molecular Pharmacol., 1990, 39:9). Washed membranes were stored at −80° C. prior to use. Frozen aliquots were slowly thawed and resuspended in 20 volumes of buffer (containing: 120 mM NaCl, 5 mM KCl, 2 mM MgCl2, 2 mM CaCl2 and 50 mM Tris-Cl, pH 7.4 @4° C.). After centrifuging at 20,000×g for 15 minutes, the pellets were resuspended in 30 volumes of buffer.
Each test compound was dissolved in water to make 10 mM stock solutions, diluted (1 :100) with buffer (as above), and further taken through seven serial log dilutions to produce test solutions from 10^−5 to 10^−11 M.
Homogenate (containing 125-150 μg protein) was added to triplicate tubes containing the range of concentrations of test compound described above and [^3H]-CYT (1.25 nM) in a final volume of 500 μL. […] The filters are counted in 4 mL of Ecolume® (ICN). Nonspecific binding was determined in the presence of 10 μM (−)-nicotine and values were expressed as a percentage of total binding. […]

[4] = system: scopolamine-induced cognitive deficit; experiment: Morris water maze, spatial discrimination version, scopolamine-induced cognitive deficit; type: in vivo, rat; conditions: about 0.001 to about 5 μmol/kg, 30 minutes prior to the test; scopolamine-HBr 0.3 mg/kg i.p.
Procedure: Male, Long-Evans rats, 300-400 g, obtained from Charles River laboratories were used in this study. During two daily habituation sessions, rats are trained to find a visible escape platform in a pool (180 cm diameter and 60 cm high) filled to a depth of 37 cm with water made opaque with powdered milk. Water temperature is maintained at 26° C. On the second day of habituation training, latency to escape measures are obtained in order to assure that animals are assigned to groups without swim speed bias. For spatial discrimination training, two visible platforms, covered in aluminum foil, are present. The platforms remain in the same position (diagonal to each other) through 5 days of training. Only one of the platforms provides escape; the other, made of expanded polystyrene, will not support the animals' weight. Rats receive six trials/day, with start position changed from trial to trial. The number of contacts with the incorrect platform (errors) serves as the dependent variable.
A cognitive deficit, as measured by increased number of errors in the water maze test, is induced by i.p. administration of the muscarinic antagonist scopolamine-HBr (0.3 mg/kg), dosed 15 min prior to each daily discrimination training session (over five days total).

[5] = IMR-32, Table 1, relative to nicotine, read-out: IMR-32 activitiy % efficacy
[6] = Table 1, read-out: IMR-32 activitiy EC50
[7] = intraperitoneally 15 minutes before testing

T1 sequence (P32297 32-505): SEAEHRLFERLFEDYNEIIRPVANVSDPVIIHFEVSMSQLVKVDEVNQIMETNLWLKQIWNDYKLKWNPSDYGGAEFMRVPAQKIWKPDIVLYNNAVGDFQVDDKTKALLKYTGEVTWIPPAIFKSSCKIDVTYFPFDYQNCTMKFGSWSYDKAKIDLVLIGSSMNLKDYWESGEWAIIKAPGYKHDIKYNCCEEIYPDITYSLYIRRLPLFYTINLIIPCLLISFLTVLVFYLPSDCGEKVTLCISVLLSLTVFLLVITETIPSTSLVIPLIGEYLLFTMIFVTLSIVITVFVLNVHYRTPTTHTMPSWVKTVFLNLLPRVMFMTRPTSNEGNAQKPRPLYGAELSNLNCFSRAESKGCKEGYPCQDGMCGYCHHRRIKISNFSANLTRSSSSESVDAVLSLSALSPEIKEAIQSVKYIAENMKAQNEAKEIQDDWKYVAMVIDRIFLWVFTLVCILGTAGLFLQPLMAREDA
T1 sequence (P30926 22-498): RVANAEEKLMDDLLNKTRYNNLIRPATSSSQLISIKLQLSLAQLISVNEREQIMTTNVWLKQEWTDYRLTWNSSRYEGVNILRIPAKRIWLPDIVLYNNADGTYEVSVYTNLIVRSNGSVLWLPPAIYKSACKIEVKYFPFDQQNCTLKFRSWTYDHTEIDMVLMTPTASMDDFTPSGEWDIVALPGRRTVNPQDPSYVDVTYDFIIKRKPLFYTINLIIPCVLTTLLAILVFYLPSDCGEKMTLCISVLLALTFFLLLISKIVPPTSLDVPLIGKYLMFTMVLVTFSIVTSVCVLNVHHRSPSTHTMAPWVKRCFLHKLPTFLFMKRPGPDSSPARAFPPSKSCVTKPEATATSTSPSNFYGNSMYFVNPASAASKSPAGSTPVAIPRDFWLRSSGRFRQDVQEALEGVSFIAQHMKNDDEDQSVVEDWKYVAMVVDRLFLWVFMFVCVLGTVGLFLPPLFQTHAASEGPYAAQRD
T2 sequence (P09483 31-630): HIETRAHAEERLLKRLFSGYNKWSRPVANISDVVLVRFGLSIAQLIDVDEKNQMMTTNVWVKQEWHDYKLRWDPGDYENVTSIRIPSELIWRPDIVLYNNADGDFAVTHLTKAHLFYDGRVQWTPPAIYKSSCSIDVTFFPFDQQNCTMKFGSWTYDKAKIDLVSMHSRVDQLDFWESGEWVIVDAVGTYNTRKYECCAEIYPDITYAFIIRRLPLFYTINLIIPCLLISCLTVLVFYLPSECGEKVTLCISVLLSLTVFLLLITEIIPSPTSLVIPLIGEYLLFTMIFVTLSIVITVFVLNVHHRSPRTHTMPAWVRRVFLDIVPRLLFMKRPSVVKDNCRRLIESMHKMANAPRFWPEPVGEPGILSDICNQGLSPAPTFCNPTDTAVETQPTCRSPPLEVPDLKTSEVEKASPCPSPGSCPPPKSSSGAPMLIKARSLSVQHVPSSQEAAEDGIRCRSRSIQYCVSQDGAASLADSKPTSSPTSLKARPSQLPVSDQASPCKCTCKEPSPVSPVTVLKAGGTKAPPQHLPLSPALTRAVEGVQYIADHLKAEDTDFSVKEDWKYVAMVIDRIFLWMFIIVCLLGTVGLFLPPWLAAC
T2 sequence (P12390 25-500): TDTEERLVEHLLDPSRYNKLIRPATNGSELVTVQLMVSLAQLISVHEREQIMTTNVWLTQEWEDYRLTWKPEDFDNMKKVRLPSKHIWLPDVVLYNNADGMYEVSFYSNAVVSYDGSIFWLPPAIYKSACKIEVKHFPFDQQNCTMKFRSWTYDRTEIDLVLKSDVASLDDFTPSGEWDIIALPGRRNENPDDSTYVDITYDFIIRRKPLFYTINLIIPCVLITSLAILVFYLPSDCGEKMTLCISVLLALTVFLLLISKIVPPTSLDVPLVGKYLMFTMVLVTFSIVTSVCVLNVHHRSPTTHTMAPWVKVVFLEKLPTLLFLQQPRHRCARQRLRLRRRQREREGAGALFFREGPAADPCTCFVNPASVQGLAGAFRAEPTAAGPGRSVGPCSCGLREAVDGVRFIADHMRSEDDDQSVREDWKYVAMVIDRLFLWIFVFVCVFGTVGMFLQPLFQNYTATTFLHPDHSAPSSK

Compound | ED50 [1] | EC50 [2] | Emax [2, 5] | EC50 [2, 6] | also measured
N#Cc1cc(N2C[C@@H]3CN[C@@H]3C2)cnc1Br [2-bromo-5-[(1S,5S)-3,6-diazabicyclo[3.2.0]hept-3-yl]nicotinonitrile] | > 19 µmol/kg | 1200 nM | 103% |  | 
N#Cc1cncc(N2C[C@@H]3CN[C@@H]3C2)c1 [5-[(1S,5S)-3,6-diazabicyclo[3.2.0]hept-3-yl]nicotinonitrile] | > 19 µmol/kg |  | 85% | 19900 nM | 
Clc1cc(N2C[C@H]3CN[C@H]3C2)cnc1Cl [(1R,5R)-3-(5,6-dichloro-3-pyridinyl)-3,6-diazabicyclo[3.2.0]heptane] |  |  | 106% | 78 nM | 
c1cncc(N2C[C@@H]3CN[C@@H]3C2)c1 [(1S,5S)-3-(3-pyridinyl)-3,6-diazabicyclo[3.2.0]heptane] | 20 µmol/kg |  | 100% | 23200 nM | 
Clc1cc(N2C[C@@H]3CN[C@@H]3C2)cnc1Cl [(1S,5S)-3-(5,6-dichloro-3-pyridinyl)-3,6-diazabicyclo[3.2.0]heptane] |  |  | 73% |  | Ki [3]: 0.1 nM; ED50 ([1]; Table 1): 1 µmol/kg; ED50 (increase in withdrawal threshold) [1, 7]: 1 µmol/kg; effect on withdrawal threshold [1, 7]: dose-dependent increase in the withdrawal threshold; maximum effect on withdrawal threshold ([1]; intraperitoneally 15 minutes before testing, baseline threshold <4 g): 15 g; Emax ([2]; IMR-32, relative to 100 μM nicotine (100%), read-out: maximum efficacy compared to nicotine): 73%; EC50 ([2]; percent maximal intensity relative to 100 μM nicotine, read-out: EC50 (calcium, IMR-32 cells)): 5500 nM; effect on scopolamine-induced cognitive deficit in water maze (errors) [4]: reversed the cognitive deficit and normalized the performance of the animals in the water maze
COc1cncc(N2C[C@@H]3CN[C@@H]3C2)c1 [(1S,5S)-3-(5-methoxy-3-pyridinyl)-3,6-diazabicyclo[3.2.0]heptane] | > 19 µmol/kg | 3800 nM | 147% |  | 
Clc1cc(N2C[C@@H]3CN[C@@H]3C2)cnc1Br [(1S,5S)-3-(6-bromo-5-chloro-3-pyridinyl)-3,6-diazabicyclo[3.2.0]heptane] | > 19 µmol/kg | 1400 nM | 81% |  | 
Clc1ccc(N2C[C@@H]3CN[C@@H]3C2)cn1 [(1S,5S)-3-(6-chloro-3-pyridinyl)-3,6-diazabicyclo[3.2.0]heptane] | 11 µmol/kg | 1400 nM | 102% |  | 
Cc1cc(N2C[C@@H]3CN[C@@H]3C2)cnc1Cl [(1S,5S)-3-(6-chloro-5-methyl-3-pyridinyl)-3,6-diazabicyclo[3.2.0]heptane] | > 19 µmol/kg | 3400 nM | 94% |  | 
Clc1ccc(C2CC3CCC2N3)cn1 (stereo not drawn) [epibatidine] |  |  |  |  | Emax ([2]; IMR-32, read-out: maximum efficacy compared to nicotine): 137%
